In patent US11654198B2, “Application of combination of polyethylene glycol and local anesthetic in non-narcotic analgesia” (JENKEM TECHNOLOGY CO., LTD. (TIANJIN), priority 2016, dated 2023):
One block for each compound: values may come before it.

Legend:
[1] = tested on: SD rats; assay: Motor block four-level score, bupivacaine dose test (Example 28); assay type: in vivo, rat; parameters: key to motor function score: 1 = normal movement, 4 = complete loss of paw function
Description: (§1) 1.3 Test substance: bupivacaine injection, diluted with physiological saline to the target concentration; the reference substance is physiological saline.
(§2) After the animals are anesthetized by intraperitoneal injection of 10% chloral hydrate solution, the sciatic nerve is exposed to the biceps and gluteus maximus joints of the hind limbs through surgery, and silicone flexible catheters of the same length (7 cm) are placed around the sciatic nerve. the other ends of the catheters are subcutaneously embedded in the back of the rat, and then sutured and fixed, and 0.2 mL of an antibiotic solution (5,000 U/ml penicillin G) is injected for anti-inflammatory.
(§3) Twenty-four qualified rats (animals with no dyskinesia and pain threshold change after catheterization) are randomly divided into 6 groups, 4 rats in each group, the first group is a control group, the experimental animals are administered with normal saline, and the other groups are administered with different doses of bupivacaine injection. Each group is injected with a corresponding drug through the catheter around the sciatic nerve.
The exercise condition of each group of rats is evaluated by a motor block four-level scoring method. The scoring criteria are: paws can be dorsiflexed, stretched, valgus and other normal exercises, scored by 1 point; paws can be dorsiflexed, bendable or after the adduction, although the paws can be stretched, the stretching ability is weakened, scored by 2 points; the paws can perform dorsiflexion, but no longer has the ability to stretch, scored by 3 points; the paws completely lose the ability of dorsiflexion, curling and stretching, and the rats produce a gait defect, scored by 4 points. The time point for measuring the motor block score is before administration, and 5 min, 10 min, 30 min, 1 h, and 2 h after administration.

[2] = tested on: experimental animals; assay: Duration of non-anesthetic analgesic effect (statement in background); assay type: in vivo; conditions: single dose
[3] = tested on: SD rats; assay: Sensory block, hot plate paw withdrawal time, bupivacaine minimum/maximum analgesic dose test (Example 28); assay type: in vivo, rat
Description: as §1, §2
After 2-3 days of catheterization, the SD rats with the body weight of 230-250 g and into which catheters are embedded are screened before the experiment by a hot plate method. The hot plate is heated to (56±1)° C., one of the hind paws of the rat is placed on the hot plate, and the other hind paw is placed in the laboratory room temperature condition, and the tested paw withdrawal time is observed and recorded. The average value of three times measured is recorded as a basic pain threshold.
as §3
The sensory block of the rats is examined by a hot plate method. The hot plate is heated to (56±1)° C., one of the hind paws of the rat is placed on the hot plate, and the other hind paw is placed at room temperature in the laboratory, the tested paw withdrawal time is observed and recorded. The average value of two to three times is recorded as a pain threshold. The paw withdrawal time of the hot plate method is recorded. In order to avoid the damage of the experimental animal body, if the rat has not withdrawal paw in the hot plate experiment for more than 15 s, the rat should be removed from the hot plate, and the experimental result is recorded as 15 s. The time point for determining the paw withdrawal time of the hot plate is before administration, and 5 minutes, 10 minutes, 30 minutes, 1 hour, and 2 hours after administration.

[4] = PEG-bupivacaine conjugate hydrolysis drug release in pH 7.4 PBS buffer (Example 29); assay type: physicochemical; conditions: 37° C., about 2 mg/mL
Description: Preparation of isotonic phosphate buffer (0.01 mol/L, pH 7.4, PBS): 8.0 g of NaCl, 0.2 g of KH2PO4, 2.9 g of Na2HPO4.12H2O and 0.2 g of KCl are added sequentially to a quantitative container, and an appropriate amount of distilled water is added to dissolve, and then the volume is adjusted to 1000 mL and the obtained buffer is stored in a refrigerator at 4° C. for use.
Hydrolysis drug release for the PEG-bupivacaine conjugate: PEG-bupivacaine products (bupivacaine conjugate 6, prepared in Example 9 of the present invention; bupivacaine conjugate 10, prepared in Example 16 of the present invention) are dissolved in PBS buffer at about 2 mg/mL and placed in a water-bathing constant temperature vibrator at 37° C. Samples are taken at 0 h, 6 h, 12 h, 24 h, 48 h, 72 h, 96 h, 120 h and 144 h, and the content of free bupivacaine is determined by HPLC.

[5] = group 2, 3 mg/kg (0.66 mg/rat) trans-catheter, 0 min (before administration)
[6] = group 2, 3 mg/kg (0.66 mg/rat) trans-catheter, 5 min
[7] = group 2, 3 mg/kg (0.66 mg/rat) trans-catheter, 10 min
[8] = group 2, 3 mg/kg (0.66 mg/rat) trans-catheter, 30 min
[9] = group 2, 3 mg/kg (0.66 mg/rat) trans-catheter, 60 min
[10] = group 2, 3 mg/kg (0.66 mg/rat) trans-catheter, 120 min
[11] = group 3, 1 mg/kg (0.22 mg/rat) trans-catheter, 0 min (before administration)
[12] = group 3, 1 mg/kg (0.22 mg/rat) trans-catheter, 5 min
[13] = group 3, 1 mg/kg (0.22 mg/rat) trans-catheter, 10 min
[14] = group 3, 1 mg/kg (0.22 mg/rat) trans-catheter, 30 min
[15] = group 3, 1 mg/kg (0.22 mg/rat) trans-catheter, 60 min
[16] = group 3, 1 mg/kg (0.22 mg/rat) trans-catheter, 120 min
[17] = group 4, 0.3 mg/kg (0.066 mg/rat) trans-catheter, 0 min (before administration)
[18] = group 4, 0.3 mg/kg (0.066 mg/rat) trans-catheter, 5 min
[19] = group 4, 0.3 mg/kg (0.066 mg/rat) trans-catheter, 10 min
[20] = group 4, 0.3 mg/kg (0.066 mg/rat) trans-catheter, 30 min
[21] = group 4, 0.3 mg/kg (0.066 mg/rat) trans-catheter, 60 min
[22] = group 4, 0.3 mg/kg (0.066 mg/rat) trans-catheter, 120 min
[23] = group 5, 0.1 mg/kg (0.022 mg/rat) trans-catheter, 0 min (before administration)
[24] = group 5, 0.1 mg/kg (0.022 mg/rat) trans-catheter, 5 min
[25] = group 5, 0.1 mg/kg (0.022 mg/rat) trans-catheter, 10 min
[26] = group 5, 0.1 mg/kg (0.022 mg/rat) trans-catheter, 30 min
[27] = group 5, 0.1 mg/kg (0.022 mg/rat) trans-catheter, 60 min
[28] = group 5, 0.1 mg/kg (0.022 mg/rat) trans-catheter, 120 min
[29] = group 6, 0.03 mg/kg (0.0066 mg/rat) trans-catheter, 0 min (before administration)
[30] = group 6, 0.03 mg/kg (0.0066 mg/rat) trans-catheter, 5 min
[31] = group 6, 0.03 mg/kg (0.0066 mg/rat) trans-catheter, 10 min
[32] = group 6, 0.03 mg/kg (0.0066 mg/rat) trans-catheter, 30 min
[33] = group 6, 0.03 mg/kg (0.0066 mg/rat) trans-catheter, 60 min
[34] = group 6, 0.03 mg/kg (0.0066 mg/rat) trans-catheter, 120 min

- motor block effect (summary) ([1]; 3 mg/kg (0.66 mg/rat) and 1 mg/kg (0.22 mg/rat)): motor block effect
- motor nerve block effect (summary) ([1]; 0.3, 0.1, 0.03 mg/kg (ie, 0.066, 0.022, 0.0066 mg/rat)): no motor nerve block effect is observed
- motor function score [1, 5]: 1 ± 0
- motor function score [1, 6]: 1 ± 0
- motor function score [1, 7]: 1.75 ± 0.5
- motor function score [1, 8]: 1.75 ± 0.5
- motor function score [1, 9]: 1.75 ± 0.5
- motor function score [1, 10]: 1 ± 0
- motor function score [1, 11]: 1 ± 0
- motor function score [1, 12]: 1.5 ± 0.58
- motor function score [1, 13]: 1.5 ± 0.58
- motor function score [1, 14]: 1.25 ± 0.5
- motor function score [1, 15]: 1 ± 0
- motor function score [1, 16]: 1 ± 0
- motor function score [1, 17]: 1 ± 0
- motor function score [1, 18]: 1 ± 0
- motor function score [1, 19]: 1 ± 0
- motor function score [1, 20]: 1 ± 0
- motor function score [1, 21]: 1 ± 0
- motor function score [1, 22]: 1 ± 0
- motor function score [1, 23]: 1 ± 0
- motor function score [1, 24]: 1 ± 0
- motor function score [1, 25]: 1 ± 0
- motor function score [1, 26]: 1 ± 0
- motor function score [1, 27]: 1 ± 0
- motor function score [1, 28]: 1 ± 0
- motor function score [1, 29]: 1 ± 0
- motor function score [1, 30]: 1 ± 0
- motor function score [1, 31]: 1 ± 0
- motor function score [1, 32]: 1 ± 0
- motor function score [1, 33]: 1 ± 0
- motor function score [1, 34]: 1 ± 0
Compound: CCCCN1CCCCC1C(=O)Nc1c(C)cccc1C (stereo not drawn) [bupivacaine]
- time the non-anesthetic analgesic effect is maintained [2]: at most 1 hour
- hot plate paw withdrawal time [3, 5]: 3.26 ± 0.88 s
- hot plate paw withdrawal time [3, 6]: 6.32 ± 2.29 s
- hot plate paw withdrawal time [3, 7]: 7.7 ± 3.88 s
- hot plate paw withdrawal time [3, 8]: 7.85 ± 3.36 s
- hot plate paw withdrawal time [3, 9]: 5.91 ± 1.9 s
- hot plate paw withdrawal time [3, 10]: 4.26 ± 1.42 s
- hot plate paw withdrawal time [3, 11]: 2.75 ± 0.74 s
- hot plate paw withdrawal time [3, 12]: 5.17 ± 5.41 s
- hot plate paw withdrawal time [3, 13]: 7.13 ± 5.43 s
- hot plate paw withdrawal time [3, 14]: 7.13 ± 4.01 s
- hot plate paw withdrawal time [3, 15]: 3.24 ± 0.85 s
- hot plate paw withdrawal time [3, 16]: 2.13 ± 0.8 s
- hot plate paw withdrawal time [3, 17]: 3.42 ± 0.87 s
- hot plate paw withdrawal time [3, 18]: 6.08 ± 1.68 s
- hot plate paw withdrawal time [3, 19]: 7.11 ± 2.55 s
- hot plate paw withdrawal time [3, 20]: 7.09 ± 1.45 s
- hot plate paw withdrawal time [3, 21]: 3.62 ± 1.25 s
- hot plate paw withdrawal time [3, 22]: 3.76 ± 0.69 s
- hot plate paw withdrawal time [3, 23]: 3.08 ± 0.61 s
- hot plate paw withdrawal time [3, 24]: 4.41 ± 3.24 s
- hot plate paw withdrawal time [3, 25]: 4.22 ± 2.45 s
- hot plate paw withdrawal time [3, 26]: 3.59 ± 1.89 s
- hot plate paw withdrawal time [3, 27]: 2.63 ± 0.41 s
- hot plate paw withdrawal time [3, 28]: 2.96 ± 1.38 s
- hot plate paw withdrawal time [3, 29]: 3.06 ± 1.1 s
- hot plate paw withdrawal time [3, 30]: 3.36 ± 0.91 s
- hot plate paw withdrawal time [3, 31]: 2.67 ± 0.6 s
- hot plate paw withdrawal time [3, 32]: 3.11 ± 1.22 s
- hot plate paw withdrawal time [3, 33]: 2.66 ± 0.53 s
- hot plate paw withdrawal time [3, 34]: 3.09 ± 0.82 s

Compound: 8-Arm-PEG-Bupivacaine, 20K [bupivacaine conjugate 10]
- PEG-bupivacaine hydrolysis rate ([4]; 0 h): 0.43%
- PEG-bupivacaine hydrolysis rate ([4]; 6 h): 15.03%
- PEG-bupivacaine hydrolysis rate ([4]; 12 h): 25.19%
- PEG-bupivacaine hydrolysis rate ([4]; 24 h): 40.37%
- PEG-bupivacaine hydrolysis rate ([4]; 48 h): 61.72%
- PEG-bupivacaine hydrolysis rate ([4]; 72 h): 76.25%
- PEG-bupivacaine hydrolysis rate ([4]; 96 h): 87.28%
- PEG-bupivacaine hydrolysis rate ([4]; 120 h): 92.76%
- PEG-bupivacaine hydrolysis rate ([4]; 144 h): 96.13%
